Source: patent US12297206B2, “Method for synthesizing furoimidazopyridine compound, polymorphic substance and polymorphic substance of salt” (HANGZHOU HIGHLIGHTLL PHARMACEUTICAL CO., LTD, priority 2019, dated 2025)
Converted amounts (≈) assume the structure as drawn. Where two headings read alike, the source gives them in different places. One block for each molecule: values may come before it.

How the values were obtained:
[1] = Dynamic vapour sorption (DVS) moisture absorption; assay type: physicochemical
[2] = physchem; details: 37 °C, thermodynamic from solid
Procedure: The samples were observed 5 minutes later, a quantity of sample or medium was supplemented to obtain mild suspension, and sampling was conduct at 30 minutes, 2 hour, 4 hours and 24 hours, respectively. The samples were centrifuged for 10 minutes at 12000 rpm to obtain the supernatant, the supernatant was diluted appropriately and was subjected to high performance liquid chromatography.
The sample concentration was calculated with an external standard method.

[3] = Stability test 1: short-term solid state stability (high temperature and accelerated conditions); assay type: physicochemical
Procedure: For the open samples, the bottle cap was removed and the bottle neck was coverred with an aluminium-foil paper stabbed with pinholes to avoid cross contamination; for the closed samples, the bottled were coverred and sealed tightly. Samples were taken at weeks 1 and 2, respectively, the samples were diluted with a diluent (methanol/water (1/1) (v/v)), the liquid phase was injected according to the chromatographic conditions in Table 22 and the sample purities were determined.
The sample purities were calculated with an area normalization method.

[4] = as above; assay type: physicochemical; details: for Stability study: crystal form: 2 weeks (XRPD, DSC); for Appearance in solid state stability test: within 2 weeks, 60° C. and 40° C./75% RH
[5] = good solvents tetrahydrofuran, ethanol, isopropanol, methanol, acetone
From the text: If no solid was precipitated, the system was stirred with the bottle opened until solid was precipitated.

[6] = dissolved at about 50° C., slowly cooled at 6° C./h
Procedure: The temperature was maintained for 15 minutes, the solution was filterred with a 0.45 μm membrane when hot and transferred to new sample bottles, slowly cooled to room temperature at 6° C./h overnight, the sample bottles were placed in a refrigerator (2-8° C.), the solvent systems wherein solid precipitated were centrifuged and the solid was collected, the solvent was volatilized at room temperature (20-25° C.) to dryness; the solvent systems wherein no solid precipitated were placed in a −20° C. refrigerator until a large amount of solids precipitated.

[7] = room temperature and 50° C., days 3, 7 and 14
Procedure: The sample bottles (wrapped with a tin foil paper to protect from light) in a room temperature system were placed on Labquaker rotator for rotating 360°; the samples in a high temperature system were placed in a 50° C. thermostatic shaking incubator and were slurried, part of the suspension samples were taken on days 3, 7 and 14, respectively and were centrifuged, solid residue was collected, the solvents were volatilized at room temperature (20-25° C.) to dryness, the solid was collected.

[8] = evaporated at room temperature
[9] = dissolved at about 50° C., transferred to −20° C.
Procedure: The temperature was maintained for 15 minutes, the solution was filterred with a 0.45 μm membrane when hot and was transferred to new sample bottles, the bottled were immediately transferred to a −20° C. refrigerator overnight, the solvent systems wherein solid was precipitated were centrifuged and the solid was collected, the solvent was volatilized at room temperature (20-25° C.) to dryness; the solvent systems wherein no solid was precipitated were placed to a −20° C. refrigerator until a large amount of solids precipitated.

[10] = tested on: thrombopoietin-induced STAT3 phosphorylation; details: as reported for WO2018067422A1; cited from earlier work
[11] = target: JAK1 (Homo sapiens, UniProt P23458); details: as reported for WO2018067422A1; cited from earlier work
Sequence of JAK1 (P23458 whole entry, species assumed): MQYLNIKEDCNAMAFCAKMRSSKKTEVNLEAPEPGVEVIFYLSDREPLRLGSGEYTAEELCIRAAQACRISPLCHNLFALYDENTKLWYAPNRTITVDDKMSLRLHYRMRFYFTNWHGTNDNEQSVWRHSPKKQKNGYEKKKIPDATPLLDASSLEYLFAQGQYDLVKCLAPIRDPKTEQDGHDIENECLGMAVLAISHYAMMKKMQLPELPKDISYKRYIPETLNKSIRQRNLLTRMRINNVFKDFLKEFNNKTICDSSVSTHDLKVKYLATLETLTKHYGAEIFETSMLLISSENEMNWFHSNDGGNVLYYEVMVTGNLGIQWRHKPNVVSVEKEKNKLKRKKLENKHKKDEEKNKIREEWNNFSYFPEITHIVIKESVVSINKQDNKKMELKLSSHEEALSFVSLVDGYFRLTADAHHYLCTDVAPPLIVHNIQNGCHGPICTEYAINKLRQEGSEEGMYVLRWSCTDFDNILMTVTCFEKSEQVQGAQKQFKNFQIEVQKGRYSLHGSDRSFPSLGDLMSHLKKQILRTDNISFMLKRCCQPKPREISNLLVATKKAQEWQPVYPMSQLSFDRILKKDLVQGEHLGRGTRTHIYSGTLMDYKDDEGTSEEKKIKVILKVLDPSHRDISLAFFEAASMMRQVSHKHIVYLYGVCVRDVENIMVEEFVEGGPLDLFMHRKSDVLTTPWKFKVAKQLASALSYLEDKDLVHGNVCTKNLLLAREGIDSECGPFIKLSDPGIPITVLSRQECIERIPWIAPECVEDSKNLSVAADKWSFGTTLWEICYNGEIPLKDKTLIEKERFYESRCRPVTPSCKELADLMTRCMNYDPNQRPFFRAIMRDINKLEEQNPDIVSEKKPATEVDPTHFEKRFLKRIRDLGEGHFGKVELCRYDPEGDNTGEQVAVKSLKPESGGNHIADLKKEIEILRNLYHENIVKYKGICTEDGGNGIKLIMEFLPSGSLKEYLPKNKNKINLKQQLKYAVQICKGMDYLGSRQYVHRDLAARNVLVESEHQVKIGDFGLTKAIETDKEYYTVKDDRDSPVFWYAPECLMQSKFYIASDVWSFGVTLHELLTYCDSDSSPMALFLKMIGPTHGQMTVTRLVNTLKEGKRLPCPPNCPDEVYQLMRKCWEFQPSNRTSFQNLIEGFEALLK

[12] = tested on: IL-6-induced STAT3 phosphorylation; details: as reported for WO2018067422A1; cited from earlier work
[13] = target: T1, TYK2 (Homo sapiens, UniProt P29597); assay: TYK2 biochemical test (33P-ATP filter binding kinase assay, Reaction Biology Corp); details: kinase reaction 2 hours at room temperature
T1 construct: purchased Reaction Biology Corp, Malvern, PA (contract assay service)
T1 sequence (P29597 whole entry): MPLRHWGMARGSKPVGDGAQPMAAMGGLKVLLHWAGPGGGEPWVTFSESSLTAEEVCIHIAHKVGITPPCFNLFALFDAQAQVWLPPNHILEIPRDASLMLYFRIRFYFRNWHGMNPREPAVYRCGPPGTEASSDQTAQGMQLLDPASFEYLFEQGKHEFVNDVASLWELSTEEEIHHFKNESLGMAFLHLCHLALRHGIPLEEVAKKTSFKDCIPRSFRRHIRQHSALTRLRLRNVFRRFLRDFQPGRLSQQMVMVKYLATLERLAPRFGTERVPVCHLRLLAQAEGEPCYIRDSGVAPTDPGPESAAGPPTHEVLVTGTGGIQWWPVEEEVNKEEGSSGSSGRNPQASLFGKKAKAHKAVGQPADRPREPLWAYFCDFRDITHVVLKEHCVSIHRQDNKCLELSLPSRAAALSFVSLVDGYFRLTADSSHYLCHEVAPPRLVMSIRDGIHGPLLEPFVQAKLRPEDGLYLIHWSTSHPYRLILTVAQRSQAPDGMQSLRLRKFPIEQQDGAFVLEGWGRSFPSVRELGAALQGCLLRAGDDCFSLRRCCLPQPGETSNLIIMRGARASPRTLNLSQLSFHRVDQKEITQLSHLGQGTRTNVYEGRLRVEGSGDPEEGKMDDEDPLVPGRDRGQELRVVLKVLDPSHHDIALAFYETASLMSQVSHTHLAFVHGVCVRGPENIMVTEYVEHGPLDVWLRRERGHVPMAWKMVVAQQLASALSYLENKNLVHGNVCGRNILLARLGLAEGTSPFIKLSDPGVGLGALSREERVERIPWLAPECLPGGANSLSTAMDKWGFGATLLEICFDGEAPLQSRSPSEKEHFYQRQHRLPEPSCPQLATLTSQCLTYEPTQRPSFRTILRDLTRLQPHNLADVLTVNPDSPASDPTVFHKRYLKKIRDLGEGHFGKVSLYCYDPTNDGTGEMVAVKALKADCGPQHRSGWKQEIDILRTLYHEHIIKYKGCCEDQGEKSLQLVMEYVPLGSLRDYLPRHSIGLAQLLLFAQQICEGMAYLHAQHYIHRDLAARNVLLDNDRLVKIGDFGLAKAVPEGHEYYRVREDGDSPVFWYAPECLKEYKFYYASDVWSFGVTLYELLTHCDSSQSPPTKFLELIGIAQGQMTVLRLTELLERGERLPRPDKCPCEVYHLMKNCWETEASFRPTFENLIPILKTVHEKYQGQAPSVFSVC
Procedure: A suitable amount of a compound of formula I was weighed for TYK2 biochemical test.
The test was conducted by Reaction Biology Corp, Malvern, PA (Anastassiadis et al. Nat Biotechnol. 2011; 29(11):1039-45). The steps are briefly described as follows.
Basic reaction buffer: 20 mM Hepes (pH 7.5), 10 mM MgCl2, 1 mM EGTA, 0.02% Brij35, 0.02 mg/ml BSA, 0.1 mM Na3VO4, 2 mM DTT and 1% DMSO. The required cofactors were added to each kinase reaction.
1. Preparing the designated substrate in the newly prepared basic reaction buffer;
2. Transferring the required cofactor to the above matrix solution;
3. Transferring the designated kinase to the substrate solution and mixing well slightly;
4. Transferring a compound of formula I in DMSO to a kinase reaction mixture with Acoustic technique (Echo550; nanoliter range), culturing for 20 minutes at room temperature;
5. Introducing ^33P-ATP (specific activity: 10 μCi/μl) to the reaction mixture to trigger a reaction;
6. Culturing at room temperature and conducting a kinase reaction for 2 hours;
7. Plotting the reaction on P81 ion exchange paper;
8. Testing the kinase activity with a filter binding assay.

[14] = fasted-state simulated intestinal fluid (FaSSIF), fassif
[15] = fed-state simulated intestinal fluid (FeSSIF), fessif
[16] = simulated gastric fluid (SGF), simulated gastric fluid

Crystal form after moisture absorption (XRPD before and after the DVS test) [1]: the crystal form changes
Weight gain by moisture absorption (DVS) ([1]; from 0% RH to 95% RH, 25° C.): 13.86%
solubility at 30 min [2, 14]: 2590 µg/mL (≈ 8.74 mM)
solubility at 2 h [2, 14]: 1860 µg/mL (≈ 6.28 mM)
solubility at 4 h [2, 14]: 1810 µg/mL (≈ 6.11 mM)
solubility at 24 h [2, 14]: 1560 µg/mL (≈ 5.26 mM)
solubility at 30 min [2, 15]: 2910 µg/mL (≈ 9.82 mM)
solubility at 2 h [2, 15]: 2200 µg/mL (≈ 7.42 mM)
solubility at 4 h [2, 15]: 2610 µg/mL (≈ 8.81 mM)
solubility at 24 h [2, 15]: 3290 µg/mL (≈ 11.1 mM)
solubility at 30 min [2, 16]: 16400 µg/mL (≈ 55.3 mM)
solubility at 2 h [2, 16]: 17000 µg/mL (≈ 57.2 mM)
solubility at 4 h [2, 16]: 15200 µg/mL (≈ 51.2 mM)
solubility at 24 h [2, 16]: 16400 µg/mL (≈ 55.4 mM)
solubility at 30 min ([2]; water): 1350 µg/mL (≈ 4.56 mM)
solubility at 2 h ([2]; water): 1730 µg/mL (≈ 5.84 mM)
solubility at 4 h ([2]; water): 1490 µg/mL (≈ 5.03 mM)
solubility at 24 h ([2]; water): 1430 µg/mL (≈ 4.83 mM)
Stability study (purity) ([3]; 0 day): 99.80 Area %
Stability study (purity) ([3]; 40° C./75% RH, open, 1 week): 99.82 Area %
Stability study (purity) ([3]; 40° C./75% RH, open, 2 weeks): 99.82 Area %
Stability study (purity) ([3]; 60° C., sealed, 1 week): 99.81 Area %
Stability study (purity) ([3]; 60° C., sealed, 2 weeks): 99.83 Area %
Stability study: crystal form ([4]; 40° C./75% RH, open): Change
Stability study: crystal form ([4]; 60° C., sealed): Change
Appearance in solid state stability test [4]: didn't change
Structure (SMILES): Cc1nc2cnc3ccoc3c2n1[C@H]1CC[C@H](CC#N)OC1

Structure (SMILES): Cc1nc2cnc3ccoc3c2n1C1CCC(CC#N)OC1.O=P(O)(O)O (stereo not shown)
Crystal form after moisture absorption (XRPD before and after the DVS test) [1]: doesn't change
Weight gain by moisture absorption (DVS) ([1]; at 70% RH): 1.95%
Weight gain by moisture absorption (DVS) ([1]; at a humidity of 85% RH): 0.72%
Weight gain by moisture absorption (DVS) ([1]; from 0% RH to 95% RH, 25° C.): 6.5%
Stability study (purity) ([3]; 0 day): 99.34 Area %
Stability study (purity) ([3]; 40° C./75% RH, open, 1 week): 99.33 Area %
Stability study (purity) ([3]; 40° C./75% RH, open, 2 weeks): 99.35 Area %
Stability study (purity) ([3]; 60° C., sealed, 1 week): 99.32 Area %
Stability study (purity) ([3]; 60° C., sealed, 2 weeks): 99.16 Area %
Stability study: crystal form ([4]; 40° C./75% RH, open): Unchange
Stability study: crystal form ([4]; 60° C., sealed): Unchange
Appearance in solid state stability test [4]: didn't change

Structure (SMILES): Cc1nc2cnc3ccoc3c2n1C1CCC(CC#N)OC1.Cc1nc2cnc3ccoc3c2n1C1CCC(CC#N)OC1.O=C(O)C(O)C(O)C(=O)O (stereo not shown)
Product crystal form ([5]; Anti-solvent Ethyl acetate): Crystal form O
Product crystal form ([5]; Anti-solvent Methyl tert-butyl ether): Crystal form O
Product crystal form ([5]; Anti-solvent N-heptane): Crystal form O
Product crystal form ([5]; Anti-solvent Toluene): Crystal form O
Crystal form of precipitated solid ([6]; Ethanol): Crystal form O
Crystal form of precipitated solid ([6]; Isopropanol): Crystal form O
Crystal form after slurrying ([7]; Acetone): Crystal form O
Crystal form after slurrying ([7]; Ethanol): Crystal form O
Crystal form after slurrying ([7]; Ethyl acetate): Crystal form O
Crystal form after slurrying ([7]; Isopropanol): Crystal form O
Crystal form after slurrying ([7]; Methanol): Crystal form O
Crystal form after slurrying ([7]; Methyl tert-butyl ether): Crystal form O
Crystal form after slurrying ([7]; N-heptane): Crystal form O
Crystal form after slurrying ([7]; Tetrahydrofuran): Crystal form O
Crystal form after slurrying ([7]; Toluene): Crystal form O
Crystal form after moisture absorption (XRPD before and after the DVS test) [1]: doesn't change
Weight gain by moisture absorption (DVS) ([1]; at a humidity of 80% RH): 1.80%
Weight gain by moisture absorption (DVS) ([1]; from 0% RH to 95% RH, 25° C.): 6.85%
Crystal form of precipitated solid ([8]; Acetone): Crystal form O
Crystal form of precipitated solid ([8]; Ethanol): Crystal form O
Crystal form of precipitated solid ([8]; Isopropanol): Crystal form O
Crystal form of precipitated solid ([8]; Methanol): Crystal form O
Crystal form of precipitated solid ([8]; Tetrahydrofuran): Crystal form O
Stability study (purity) ([3]; 0 day): 99.22 Area %
Stability study (purity) ([3]; 40° C./75% RH, open, 1 week): 99.31 Area %
Stability study (purity) ([3]; 40° C./75% RH, open, 2 weeks): 99.36 Area %
Stability study (purity) ([3]; 60° C., sealed, 1 week): 99.34 Area %
Stability study (purity) ([3]; 60° C., sealed, 2 weeks): 99.36 Area %
Stability study: crystal form ([4]; 40° C./75% RH, open): Unchange
Stability study: crystal form ([4]; 60° C., sealed): Unchange
Appearance in solid state stability test [4]: didn't change
Crystal form of precipitated solid ([9]; Ethanol): Crystal form O
Crystal form of precipitated solid ([9]; Isopropanol): Crystal form O
Crystal form of precipitated solid ([9]; Methanol): Crystal form O

Structure (SMILES): Br.Cc1nc2cnc3ccoc3c2n1C1CCC(CC#N)OC1 (stereo not shown)
Crystal form after moisture absorption (XRPD before and after the DVS test) [1]: changed
Weight gain by moisture absorption (DVS) ([1]; from 0% RH to 95% RH, 25° C.): 11.84%

Structure (SMILES): Cc1nc2cnc3ccoc3c2n1C1CCC(CC#N)OC1.O=S(=O)(O)c1ccccc1 (stereo not shown)
Crystal form after moisture absorption (XRPD before and after the DVS test) [1]: doesn't change
Weight gain by moisture absorption (DVS) ([1]; at 70% RH): 0.97%
Weight gain by moisture absorption (DVS) ([1]; at a humidity of 85% RH): 0.54%
Weight gain by moisture absorption (DVS) ([1]; from 0% RH to 95% RH, 25° C.): 4.6%

IC50 [13]: < 10 nM
Structure (SMILES): Cc1nc2cnc3ccoc3c2n1[C@H]1CC[C@H](CC#N)OC1 [compound of formula I, 2-[(2R,5S)-5-[2-methylfuro[3,2-b]imidazo[4,5-d]pyridin-1-yl]tetrahydropyran-2-yl] acetonitrile]
Inhibition of thrombopoietin-induced STAT3 phosphorylation [10]: does not show selective inhibition
JAK1 inhibition [11]: potent and selective JAK1 inhibitor
Inhibition of IL-6-induced STAT3 phosphorylation [12]: selective inhibition
